# From patent US20040115331A1, “Ximenynic acid compositions, methods for their production and uses thereof” (priority 2002, published 2004)
# Test system: enteroendocrine L-cells
# Assay: Secretion of satiety inducing peptides (CCK-8, GLP-1) by enteroendocrine L-cells, radio immuno assay
# Assay type: cell-based
# Details: L-cells incubated 2 h at 37° C in KRB buffer; compared with equal amounts of palmitic acid
# Procedure: To estimate the effects of ximenynic acid on satiety we measure the excretion of satiety inducing peptides (CCK-8 and GLP-1 L) by enteroendocrine L-cells. Two days prior to experiment 1*10^6 are cultured in 12-well culture plates. On the day of the experiment supernatants are replaced by Krebs-Ringer bicarbonate (KRB) buffer containing either control or test substances. Prior to the addition the solutions are adjusted to pH 7.2. Cells are incubated for 2 h at 37° C. Following incubation, supernatants are collected and measured by radio immuno assay for the amount of CCK-8 or GLP-1 which has been secreted.
compound,measurement,value
"CCCCCC/C=C/C#CCCCCCCCC(=O)O [ximenynic acid, octadeca-trans-11-en-9-ynoic acid]",release of CCK-8,significantly greater release
same,release of GLP-1,significantly greater release
